Data published in ChEMBL document CHEMBL1136624, “Synthesis and anticancer effect of chrysin derivatives” (Bioorg Med Chem Lett, 2003).

Tests used:
[1] = tested on: HT-29; assay: In vitro inhibitory concentration required against human colorectal adenocarcinoma HT-29 cell line; format: functional, cell-based
[2] = tested on: SGC-7901; assay: In vitro inhibitory concentration required against human gastric adenocarcinoma SGC-7901 cell line; format: functional, cell-based

SMILES	IC50 [1]	IC50 [2]
CC(=O)Oc1c(C(F)(F)F)c(O)c2c(=O)cc(-c3ccccc3)oc2c1C(F)(F)F	2.9 µM	
COc1cc(OC)c2c(=O)cc(-c3ccccc3)oc2c1C(F)(F)F	2.3 µM	5.9 µM
O=c1cc(-c2ccccc2)oc2cc(O)cc(O)c12 [CHRYSIN]	3.1 µM	5.8 µM
O=c1cc(-c2ccccc2)oc2c([N+](=O)[O-])c(O)cc(O)c12	2.3 µM	2.8 µM
CC(=O)Oc1c(I)c(O)c2c(=O)cc(-c3ccccc3)oc2c1I	3 µM	4.2 µM
O=c1cc(-c2ccccc2)oc2c(Br)c(O)c(Br)c(O)c12	4 µM	5.1 µM
CC(=O)Oc1cc(OC(C)=O)c2c(=O)cc(-c3ccccc3)oc2c1 [CHRYSIN DIACETATE]	2.6 µM	4.5 µM
CC(=O)Oc1cc(O)c2c(=O)cc(-c3ccccc3)oc2c1	3.8 µM	3.6 µM
COc1cc(OC)c2c(=O)cc(-c3ccccc3)oc2c1 [CHRYSIN DIMETHYL ETHER]	2 µM	3.7 µM

The remaining molecules from weak to strong by IC50 [1], led by results:

IC50 [1]	IC50 [2]	SMILES
4.4 µM	2.9 µM	O=c1cc(-c2ccccc2)oc2c(I)c(O)c(I)c(O)c12
2.6 µM	2.2 µM	COc1cc(OC)c2c(=O)cc(-c3ccccc3)oc2c1I
2.3 µM	6.4 µM	COc1c([N+](=O)[O-])c(O)c2c(=O)cc(-c3ccccc3)oc2c1I
1.9 µM	2.5 µM	COc1cc(O)c2c(=O)cc(-c3ccccc3)oc2c1Br
